Tests used:
Type in all cases: biochemical
[1] = molecular target: EGFR T790M/L858R kinase domain (Homo sapiens (Human), UniProt P00533, L858R/T790M); assay: EGFR enzymatic assay, TR-FRET, EGFR T790M/L858R
Protocol: (§1) Compounds disclosed herein were tested against WT EGFR kinase domain (aa.669-1210, Carna Biosciences, 08-115), EGFR T790M/L858R kinase domain (aa.669-1210, Carna Biosciences, 08-510) and EGFR L858R kinase domain (aa.669-1210, Carna Biosciences, 08-502) in assays based on time-resolved fluorescence-resonance energy transfer methodology. The assay was carried out in 384-well low volume black plate in a reaction mixture containing EGFR kinases, 20 LM for EGFR WT and T790M/L858R, and 125 LM for EGFR L858R), biotin-TK substrate and 0-5 LM compounds in buffer containing 50 mM HEPES pH7.5, 10 mM MgCl2, 1 mM EGTA, 0.01% Brij-35, 2.5 mM DTT, 0.1% BSA. The kinase was incubated with the compounds disclosed herein at room temperature for 120 minutes and the reaction was initiated by the addition of ATP and biotin-TK substrate. After reaction at room temperature for 30 minutes, an equal volume of stop/detection solution was added according to the manufacture's instruction (CisBio Bioassays). The stop/detection solution contained TK-Antibody-Cryptate and Streptavidin-XL665 in buffer containing 25 mM Tris pH7.4, 400 mM KF, 50 mM EDTA, 0.01% BSA, 0.01% Triton X-100. Plates were sealed and incubated at room temperature for 1 hour, and the TR-FRET signals were read on BMG PHERAstar FS instrument. The IC50 of an inhibitor was derived from fitting the % inhibition data at each compound concentration to the four-parameter logistic equation by Graphpad Prism software.

B-Raf (V600E) = B-Raf (V600E) (Homo sapiens (Human), UniProt P15056, V600E); assay: Raf IC50 assay, TR-FRET, B-Raf (V600E); settings: 0.1 mM ATP; read-out: IC50 BRAF-V600E
Chain of B-Raf (V600E) (P15056 whole entry V600E): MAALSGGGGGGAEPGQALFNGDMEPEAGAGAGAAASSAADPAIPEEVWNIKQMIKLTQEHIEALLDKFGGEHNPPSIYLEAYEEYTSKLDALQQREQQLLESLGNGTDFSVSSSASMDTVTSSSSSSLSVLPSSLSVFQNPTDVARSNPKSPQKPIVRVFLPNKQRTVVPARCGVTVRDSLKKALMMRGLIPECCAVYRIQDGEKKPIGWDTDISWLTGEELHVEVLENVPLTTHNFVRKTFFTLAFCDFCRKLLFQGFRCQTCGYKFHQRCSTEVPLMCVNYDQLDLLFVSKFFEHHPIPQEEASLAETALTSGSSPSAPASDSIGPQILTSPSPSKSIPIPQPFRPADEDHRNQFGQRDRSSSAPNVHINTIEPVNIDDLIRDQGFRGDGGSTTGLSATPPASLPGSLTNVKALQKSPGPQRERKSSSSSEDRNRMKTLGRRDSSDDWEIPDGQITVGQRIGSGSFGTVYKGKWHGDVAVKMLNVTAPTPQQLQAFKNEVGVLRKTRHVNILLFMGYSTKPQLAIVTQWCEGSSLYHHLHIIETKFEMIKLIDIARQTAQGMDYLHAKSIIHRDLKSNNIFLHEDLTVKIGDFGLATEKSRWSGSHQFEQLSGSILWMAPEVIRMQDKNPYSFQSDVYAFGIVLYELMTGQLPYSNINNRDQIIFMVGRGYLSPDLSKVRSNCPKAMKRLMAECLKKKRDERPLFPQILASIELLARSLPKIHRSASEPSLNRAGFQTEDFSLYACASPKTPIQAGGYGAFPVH
Protocol: The enzyme was incubated with the compounds disclosed herein at room temperature for 60 minutes and the reactions were initiated by the addition of ATP and GST-MEK1. After reaction at room temperature for 60 minutes, an equal volume of stop/detection solution was added according to the manufacture's instruction (CisBio Bioassays). […] The IC50 for each compound was derived from fitting the dose-response % inhibition data to the four-parameter logistic model by Graphpad Prism software.

EGFR L858R kinase domain = EGFR L858R kinase domain (Homo sapiens (Human), UniProt P00533, L858R); assay: EGFR enzymatic assay, TR-FRET, EGFR L858R
Chain of EGFR L858R kinase domain (P00533 669-1210 L858R): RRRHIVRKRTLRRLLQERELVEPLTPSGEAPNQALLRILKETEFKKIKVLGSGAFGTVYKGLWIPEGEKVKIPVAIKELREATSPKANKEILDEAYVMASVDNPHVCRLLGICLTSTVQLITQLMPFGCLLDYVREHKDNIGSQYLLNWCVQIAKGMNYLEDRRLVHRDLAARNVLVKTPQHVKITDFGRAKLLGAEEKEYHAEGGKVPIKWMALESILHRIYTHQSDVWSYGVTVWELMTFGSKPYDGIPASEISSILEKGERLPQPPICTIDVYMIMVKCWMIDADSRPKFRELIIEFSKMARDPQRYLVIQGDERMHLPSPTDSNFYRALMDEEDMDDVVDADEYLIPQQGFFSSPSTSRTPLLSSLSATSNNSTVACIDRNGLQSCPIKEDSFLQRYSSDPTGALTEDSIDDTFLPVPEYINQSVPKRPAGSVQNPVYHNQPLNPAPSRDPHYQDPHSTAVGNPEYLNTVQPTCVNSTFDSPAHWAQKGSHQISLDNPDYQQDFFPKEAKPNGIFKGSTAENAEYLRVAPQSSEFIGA
Protocol: as §1

WT EGFR kinase domain = WT EGFR kinase domain (Homo sapiens (Human), UniProt P00533); assay: EGFR enzymatic assay, TR-FRET, WT EGFR
Chain of WT EGFR kinase domain (P00533 669-1210): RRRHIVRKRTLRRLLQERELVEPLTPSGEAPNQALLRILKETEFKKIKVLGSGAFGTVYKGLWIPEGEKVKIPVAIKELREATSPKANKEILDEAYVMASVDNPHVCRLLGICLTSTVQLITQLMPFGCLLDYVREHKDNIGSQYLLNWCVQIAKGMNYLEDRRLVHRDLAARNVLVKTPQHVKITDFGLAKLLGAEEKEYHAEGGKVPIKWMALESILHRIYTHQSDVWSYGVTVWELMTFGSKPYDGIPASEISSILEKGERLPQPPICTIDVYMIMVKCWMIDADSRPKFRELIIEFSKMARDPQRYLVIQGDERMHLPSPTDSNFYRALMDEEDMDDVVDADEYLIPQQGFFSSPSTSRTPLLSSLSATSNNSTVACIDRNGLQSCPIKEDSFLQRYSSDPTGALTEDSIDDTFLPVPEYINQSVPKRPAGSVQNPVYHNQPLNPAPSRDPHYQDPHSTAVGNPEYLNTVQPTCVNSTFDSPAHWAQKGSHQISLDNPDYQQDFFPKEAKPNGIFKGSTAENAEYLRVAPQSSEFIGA
Protocol: as §1

Chain of EGFR T790M/L858R kinase domain (P00533 669-1210 T790M/L858R): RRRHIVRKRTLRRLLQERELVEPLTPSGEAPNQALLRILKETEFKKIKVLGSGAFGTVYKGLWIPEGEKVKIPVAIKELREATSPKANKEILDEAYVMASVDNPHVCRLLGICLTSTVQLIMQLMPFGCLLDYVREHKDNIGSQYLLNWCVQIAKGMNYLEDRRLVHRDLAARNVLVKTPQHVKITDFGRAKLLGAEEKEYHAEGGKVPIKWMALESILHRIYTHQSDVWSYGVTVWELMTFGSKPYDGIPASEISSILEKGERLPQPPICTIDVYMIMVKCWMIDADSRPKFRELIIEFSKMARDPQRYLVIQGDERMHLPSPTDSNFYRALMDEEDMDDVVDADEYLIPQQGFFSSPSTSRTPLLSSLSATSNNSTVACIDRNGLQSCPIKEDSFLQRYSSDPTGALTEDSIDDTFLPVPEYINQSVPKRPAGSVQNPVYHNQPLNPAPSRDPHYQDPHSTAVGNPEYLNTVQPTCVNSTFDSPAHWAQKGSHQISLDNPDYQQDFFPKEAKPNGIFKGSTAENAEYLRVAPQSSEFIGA

| Compound | IC50 [1] [nM] | IC50 (B-Raf (V600E)) [nM] | IC50 (EGFR L858R kinase domain) [nM] | IC50 (WT EGFR kinase domain) [nM] |
| --- | --- | --- | --- | --- |
| O=C1CCc2c(Oc3ccc4c(c3)[C@H]3[C@H](NC(=O)c5ccc(CN6CCN(CC(F)(F)F)CC6)c(C(F)(F)F)c5)[C@H]3O4)ccnc2N1 [Compound 1.2] | 813 | 27 | 292 | 249 |
| CN1CCN(Cc2ccc(C(=O)N[C@@H]3[C@H]4Oc5ccc(Oc6ccnc7c6CCC(=O)N7)cc5[C@@H]34)cc2)CC1 [Compound 1.11] | 18 | 5.9 | 0.57 | 1.28 |
| C[C@@H]1CN(Cc2ccc(C(=O)N[C@@H]3[C@H]4Oc5ccc(Oc6ccnc7c6CCC(=O)N7)cc5[C@@H]34)cc2C(F)(F)F)C[C@H](C)O1 [Compound 1.13] | 47 | 86 | 11 | 59 |
| CCN1CCN(Cc2ccc(C(=O)N[C@@H]3[C@H]4Oc5ccc(Oc6ccnc7c6CCC(=O)N7)cc5[C@@H]34)cc2Cl)CC1 [Compound 1.18] | – | 5.7 | – | – |
| CCN1CCN(Cc2ccc(C(=O)N[C@@H]3[C@H]4Oc5ccc(Oc6ccnc7c6CCC(=O)N7)cc5[C@@H]34)cc2Br)CC1 [Compound 1.19] | 1.1 | 5.4 | 0.27 | 0.55 |
| CN1CCN(Cc2ccc(C(=O)N[C@@H]3[C@H]4Oc5ccc(Oc6ccnc7c6CCC(=O)N7)cc5[C@@H]34)cc2F)CC1 [Compound 1.21] | 3 | 8.8 | 0.28 | 1.3 |
| CN1CCN(Cc2ccc(C(=O)N[C@@H]3[C@H]4Oc5ccc(Oc6ccnc7c6CCC(=O)N7)cc5[C@@H]34)cc2Br)CC1 [Compound 1.23] | 0.52 | 5.4 | 0.24 | 1.1 |
| CCCCCCCCCCCC(=O)N[C@@H]1[C@H]2Oc3ccc(Oc4ccnc5c4CCC(=O)N5)cc3[C@@H]12 [Compound 1.28] | 885 | – | 287 | 809 |
| C[C@@H]1CN(Cc2ccc(C(=O)N[C@@H]3[C@H]4Oc5ccc(Oc6ccnc7c6CCC(=O)N7)cc5[C@@H]34)cc2C(F)(F)F)CCN1 [Compound 1.30] | 2.7 | – | 0.46 | 0.69 |
| CN1CCN(Cc2ccc(C(=O)N[C@H]3[C@@H]4Oc5ccc(Oc6ccnc7c6CCC(=O)N7)cc5[C@H]34)cc2C(F)(F)F)CC1 [Compound 1.34] | 119 | 11 | 29 | 254 |
| CN(C)[C@@H]1CCCN(c2ccc(C(=O)N[C@@H]3[C@H]4Oc5ccc(Oc6ccnc7c6CCC(=O)N7)cc5[C@@H]34)cc2C(F)(F)F)C1 [Compound 1.48] | 5.3 | 16 | 0.91 | 1.7 |
| CCN1CCN(c2ccc(C(=O)N[C@@H]3[C@H]4Oc5ccc(Oc6ccnc7c6CCC(=O)N7)cc5[C@@H]34)cc2C(F)(F)F)CC1 [Compound 1.50] | 25 | 11 | 7.1 | 6.3 |
| CCN1CCN(Cc2ccc(C(=O)NC3C4Oc5c(C)cc(Oc6ccnc7c6CCC(=O)N7)cc5C34)cc2C(F)(F)F)CC1 (stereo not shown) [Compound 1.55, 4-((4-ethylpiperazin-1-yl)methyl)-N-(3-methyl-5-((7-oxo-5,6,7,8-tetrahydro-1,8-naphthyridin-4-yl)oxy)-1a,6b-dihydro-1H-cyclopropa[b]benzofuran-1-yl)-3-(trifluoromethyl)benzamide] | 0.4 | 18 | 0.35 | 2.2 |
| Cc1cc(Oc2ccnc3c2CCC(=O)N3)cc2c1OC1C(NC(=O)c3ccc(CN4CCN(C)CC4)c(C(F)(F)F)c3)C21 (stereo not shown) [Compound 1.56] | 0.47 | 21 | 0.4 | 2.5 |
| CCN1CCN(Cc2ccc(C(=O)N[C@@H]3[C@H]4Oc5ccc(Oc6ccnc7c6CCC(=O)N7)cc5[C@@H]34)cc2C)CC1 [Compound 1.57, 4-((4-ethylpiperazin-1-yl)methyl)-3-methyl-N-((1S,1aS,6bS)-5-((7-oxo-5,6,7,8-tetrahydro-1,8-naphthyridin-4-yl)oxy)-1a,6b-dihydro-1H-cyclopropa[b]benzofuran-1-yl)benzamide] | 3.1 | 6.4 | 0.5 | 1.5 |
| Cc1cc(C(=O)N[C@@H]2[C@H]3Oc4ccc(Oc5ccnc6c5CCC(=O)N6)cc4[C@@H]23)ccc1CN1CCN(C)CC1 [Compound 1.58] | 1.8 | 5.5 | 0.31 | 1.2 |
| CCN1CCC(Oc2ccc(C(=O)N[C@@H]3[C@H]4Oc5ccc(Oc6ccnc7c6CCC(=O)N7)cc5[C@@H]34)cc2C(F)(F)F)CC1 [Compound 1.64] | 0.46 | 12 | < 0.25 | 1.1 |
| CC1CN(Cc2ccc(C(=O)N[C@@H]3[C@H]4Oc5ccc(Oc6ccnc7c6CCC(=O)N7)cc5[C@@H]34)cc2C(F)(F)F)CC(C)N1 (stereo partly drawn) [Compound 1.65, 4-((3,5-dimethylpiperazin-1-yl)methyl)-N-((1S,1aS,6bS)-5-((7-oxo-5,6,7,8-tetrahydro-1,8-naphthyridin-4-yl)oxy)-1a,6b-dihydro-1H-cyclopropa[b]benzofuran-1-yl)-3-(trifluoromethyl)benzamide] | 11 | 8.1 | 1.1 | 1.9 |
| CN1C(C)(C)CC(Oc2ccc(C(=O)N[C@@H]3[C@H]4Oc5ccc(Oc6ccnc7c6CCC(=O)N7)cc5[C@@H]34)cc2C(F)(F)F)CC1(C)C [Compound 1.77, N-((1S,1aS,6bS)-5-((7-oxo-5,6,7,8-tetrahydro-1,8-naphthyridin-4-yl)oxy)-1a,6b-dihydro-1H-cyclopropa[b]benzofuran-1-yl)-4-((1,2,2,6,6-pentamethylpiperidin-4-yl)oxy)-3-(trifluoromethyl)benzamide] | – | 13 | – | – |

The next lines start with the values.

| IC50 [1] [nM] | IC50 (B-Raf (V600E)) [nM] | IC50 (EGFR L858R kinase domain) [nM] | IC50 (WT EGFR kinase domain) [nM] | Compound |
| --- | --- | --- | --- | --- |
| – | 1.7 | – | – | CCN1CCN(Cc2cc(F)cc(C(=O)N[C@@H]3[C@H]4Oc5ccc(Oc6ccnc7c6CCC(=O)N7)cc5[C@@H]34)c2)CC1 [Compound 1.6] |
| 0.47 | 4.8 | 0.23 | 0.8 | CN1CCN(Cc2ccc(C(=O)N[C@@H]3[C@H]4Oc5ccc(Oc6ccnc7c6CCC(=O)N7)cc5[C@@H]34)cc2Cl)CC1 [Compound 1.22] |
| 6.2 | 1 | 4.8 | 19 | Cc1cc(C(=O)N[C@@H]2[C@H]3Oc4ccc(Oc5ccnc6c5CCC(=O)N6)cc4[C@@H]23)ccc1CO [Compound 1.59, 4-(hydroxymethyl)-3-methyl-N-((1S,1aS,6bS)-5-((7-oxo-5,6,7,8-tetrahydro-1,8-naphthyridin-4-yl)oxy)-1a,6b-dihydro-1H-cyclopropa[b]benzofuran-1-yl)benzamide] |
| 2550 | 1.5 | 949 | 3450 | O=C1CCc2c(Oc3ccc4c(c3)[C@H]3[C@H](NC(=O)Cc5cccc(C(F)(F)F)c5)[C@H]3O4)ccnc2N1 [Compound 1.60] |
| 237 | 1.5 | 76 | 132 | O=C1CCc2c(Oc3ccc4c(c3)[C@H]3[C@H](NC(=O)c5ccnc(C(F)(F)F)c5)[C@H]3O4)ccnc2N1 [Compound 1.61] |
| 114 | 1.3 | 28 | 42 | O=C1CCc2c(Oc3ccc4c(c3)[C@H]3[C@H](NC(=O)c5cncc(C(F)(F)F)c5)[C@H]3O4)ccnc2N1 [Compound 1.62] |
| 234 | 2.5 | 296 | 1140 | O=C1CCc2c(Oc3ccc4c(c3)[C@H]3[C@H](NC(=O)c5cccc(C(F)(F)F)n5)[C@H]3O4)ccnc2N1 [Compound 1.63] |
| 81 | 3.6 | 13 | 9.3 | CN(C)Cc1cc(C(=O)N[C@@H]2[C@H]3Oc4ccc(Oc5ccnc6c5CCC(=O)N6)cc4[C@@H]23)cc(C(F)(F)F)c1 [Compound 1.66] |
| 1410 | 0.6 | 182 | 385 | CCCCCC(=O)N[C@@H]1[C@H]2Oc3ccc(Oc4ccnc5c4CCC(=O)N5)cc3[C@@H]12 [Compound 1.67] |
| 95 | 0.77 | 71 | 98 | CCCCCCC(=O)N[C@@H]1[C@H]2Oc3ccc(Oc4ccnc5c4CCC(=O)N5)cc3[C@@H]12 [Compound 1.68] |
| 782 | 2 | 116 | 118 | CCCCCCCC(=O)N[C@@H]1[C@H]2Oc3ccc(Oc4ccnc5c4CCC(=O)N5)cc3[C@@H]12 [Compound 1.69] |
